Results reported in ChEMBL document CHEMBL5291721, “A preclinical secondary pharmacology resource illuminates target-adverse drug reaction associations of marketed drugs” (Nat Commun, 2023).

Target: T1, Androgen receptor (Homo sapiens, UniProt P10275)
T1 sequence (P10275 whole entry): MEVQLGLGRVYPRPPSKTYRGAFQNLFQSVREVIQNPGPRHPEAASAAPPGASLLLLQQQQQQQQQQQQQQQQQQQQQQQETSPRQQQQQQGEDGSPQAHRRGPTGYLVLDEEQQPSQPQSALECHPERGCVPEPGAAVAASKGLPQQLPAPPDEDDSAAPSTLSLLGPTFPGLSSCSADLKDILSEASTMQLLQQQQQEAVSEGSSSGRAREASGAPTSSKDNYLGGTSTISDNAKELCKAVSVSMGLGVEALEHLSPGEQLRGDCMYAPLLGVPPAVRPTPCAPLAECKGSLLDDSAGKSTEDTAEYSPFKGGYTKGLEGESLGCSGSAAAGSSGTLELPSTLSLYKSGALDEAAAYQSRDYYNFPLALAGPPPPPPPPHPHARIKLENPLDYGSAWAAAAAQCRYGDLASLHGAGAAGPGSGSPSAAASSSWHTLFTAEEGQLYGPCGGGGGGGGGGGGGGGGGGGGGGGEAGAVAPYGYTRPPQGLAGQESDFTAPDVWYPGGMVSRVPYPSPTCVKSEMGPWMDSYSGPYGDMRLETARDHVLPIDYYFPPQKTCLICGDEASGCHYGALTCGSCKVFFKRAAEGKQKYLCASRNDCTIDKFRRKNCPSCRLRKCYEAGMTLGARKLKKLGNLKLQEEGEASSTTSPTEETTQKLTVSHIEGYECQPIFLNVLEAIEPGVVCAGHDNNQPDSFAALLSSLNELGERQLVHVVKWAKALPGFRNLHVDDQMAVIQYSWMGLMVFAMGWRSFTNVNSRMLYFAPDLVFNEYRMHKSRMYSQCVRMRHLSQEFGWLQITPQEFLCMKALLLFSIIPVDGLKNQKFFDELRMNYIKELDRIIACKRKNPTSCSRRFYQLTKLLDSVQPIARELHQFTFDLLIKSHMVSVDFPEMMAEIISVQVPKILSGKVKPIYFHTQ
Also: assay procedure not described here.

AC50: > 30 µM
SMILES: CCN(CC)CCCC(C)Nc1c2ccc(Cl)cc2nc2ccc(OC)cc12 (stereo unspecified) [QUINACRINE]
